Literature values in patent US20100256082A1, “Metallo-hydrolase inhibitors using metal binding moietes in combination with targeting moieties” (Viamet Pharmaceuticals, Inc., priority 2006, published 2010).

Assays:
PDE3A = PDE3A (Homo sapiens, UniProt Q14432, T844A); settings: T844 to Ala mutant versus PDE3A
RDP = settings: read-out: 50% inhibitory concentration; reversible, competitive inhibitor of RDP

Sequence of PDE3A (Q14432 whole entry T844A): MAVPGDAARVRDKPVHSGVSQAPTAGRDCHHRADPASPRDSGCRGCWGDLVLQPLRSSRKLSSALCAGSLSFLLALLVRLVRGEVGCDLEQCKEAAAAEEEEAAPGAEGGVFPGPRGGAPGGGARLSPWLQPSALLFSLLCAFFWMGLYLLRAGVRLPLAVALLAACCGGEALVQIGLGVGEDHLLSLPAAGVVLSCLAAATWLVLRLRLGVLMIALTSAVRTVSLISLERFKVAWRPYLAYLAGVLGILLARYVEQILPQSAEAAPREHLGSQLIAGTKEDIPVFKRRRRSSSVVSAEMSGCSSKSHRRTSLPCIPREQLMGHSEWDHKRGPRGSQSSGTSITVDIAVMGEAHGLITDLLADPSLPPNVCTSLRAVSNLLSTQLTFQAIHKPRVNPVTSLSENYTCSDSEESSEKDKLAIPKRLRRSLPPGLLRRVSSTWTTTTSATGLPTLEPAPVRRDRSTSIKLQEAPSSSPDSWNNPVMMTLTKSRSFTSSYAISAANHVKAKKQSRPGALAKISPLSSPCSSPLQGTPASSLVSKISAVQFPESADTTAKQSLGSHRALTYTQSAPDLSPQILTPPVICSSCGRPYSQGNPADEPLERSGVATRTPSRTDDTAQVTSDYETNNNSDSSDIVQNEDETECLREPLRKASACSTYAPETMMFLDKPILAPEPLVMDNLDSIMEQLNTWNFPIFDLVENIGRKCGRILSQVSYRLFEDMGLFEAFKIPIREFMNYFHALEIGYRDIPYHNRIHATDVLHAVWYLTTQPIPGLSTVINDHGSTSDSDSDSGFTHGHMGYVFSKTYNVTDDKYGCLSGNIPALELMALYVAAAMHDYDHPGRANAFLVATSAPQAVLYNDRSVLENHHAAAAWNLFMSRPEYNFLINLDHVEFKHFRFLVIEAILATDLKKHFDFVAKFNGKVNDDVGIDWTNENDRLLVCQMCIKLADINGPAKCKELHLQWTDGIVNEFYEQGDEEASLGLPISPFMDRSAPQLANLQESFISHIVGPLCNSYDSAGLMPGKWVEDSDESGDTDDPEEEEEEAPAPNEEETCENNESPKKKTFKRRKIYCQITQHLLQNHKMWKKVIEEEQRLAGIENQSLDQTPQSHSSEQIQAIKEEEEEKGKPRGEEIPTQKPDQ

Row | Compound | effect of mutation of T844 to Ala in PDE3A on the K (PDE3A) | other results
1 | O=C1CCc2cc(OCCCCc3nnnn3C3CCCCC3)ccc2N1 [cilostazol] |  | increase in Ki on mutation of T844 to Ala in PDE3A (PDE3A): 25 fold
2 | Nc1nc2c(ncn2[C@@H]2O[C@@H]3COP(=O)(O)O[C@H]3[C@H]2O)c(=O)[nH]1 [cGMP] | no effect | 
3 | CC1(C)C[C@@H]1C(=O)N/C(=C\CCCCSC[C@H](N)C(=O)O)C(=O)O [Cilastatin] |  | IC50 (RDP): 50.1 mM
4 | Cc1[nH]c(=O)c(C#N)cc1-c1ccncc1 [milrinone] | no effect | 
